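These data come from cells grown in 96-well plates and exposed to compound for 48 hours at five concentrations. TGI denotes the concentration required for complete inhibition of growth.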
What was measured:
Test in all cases: DTP human tumour cell line panel, 48 h
[1] = tested on: HT29 colon
[2] = tested on: M14 melanoma
[3] = tested on: 786-0 renal
[4] = tested on: NCI-H23 lung
[5] = tested on: MDA-N
[6] = tested on: SK-OV-3 ovarian
[7] = tested on: PC-3 prostate
[8] = tested on: RXF 393 renal
[9] = tested on: OVCAR-4 ovarian
[10] = tested on: HL-60(TB) leukemia

`COc1ccccc1C1Nn2c(nc3ccccc3c2=O)N1c1ccc(C)cc1` (stereo not given) was tested, and the TGI [1] was 29.5 µM, the TGI [2] was 26.4 µM and the TGI [3] was 8.37 µM. The TGI [4] was 29.3 µM, the TGI [5] was 20.9 µM and the TGI [6] was 15.7 µM. It also gave a TGI [7] of 10.8 µM, a TGI [8] of 24 µM and a TGI [9] of 11.9 µM. The TGI [10] was 49.1 µM.

Work on `CCn1c2ccc(C(=O)CCCN3CCCCC3)cc2c2cc(C(=O)CCCN3CCCCC3)ccc21` yielded a TGI [1] of 4.2 µM, a TGI [2] of 3.6 µM and a TGI [3] of 2.78 µM. For the same compound, the TGI [4] was 4.49 µM, the TGI [5] was 5.7 µM and the TGI [6] was 13.4 µM. It also gave a TGI [7] of 12.6 µM, a TGI [8] of 7.31 µM and a TGI [9] of 5.65 µM. For the same compound, the TGI [10] was over 100 µM.
